Molecules are shown by their SMILES.

This test has as its target T1, androgen receptor (AR) (Homo sapiens, UniProt P10275, T878A).
T1 construct: endogenous in cells; host or cells: LNCAP
T1 sequence (P10275 1-920 T878A): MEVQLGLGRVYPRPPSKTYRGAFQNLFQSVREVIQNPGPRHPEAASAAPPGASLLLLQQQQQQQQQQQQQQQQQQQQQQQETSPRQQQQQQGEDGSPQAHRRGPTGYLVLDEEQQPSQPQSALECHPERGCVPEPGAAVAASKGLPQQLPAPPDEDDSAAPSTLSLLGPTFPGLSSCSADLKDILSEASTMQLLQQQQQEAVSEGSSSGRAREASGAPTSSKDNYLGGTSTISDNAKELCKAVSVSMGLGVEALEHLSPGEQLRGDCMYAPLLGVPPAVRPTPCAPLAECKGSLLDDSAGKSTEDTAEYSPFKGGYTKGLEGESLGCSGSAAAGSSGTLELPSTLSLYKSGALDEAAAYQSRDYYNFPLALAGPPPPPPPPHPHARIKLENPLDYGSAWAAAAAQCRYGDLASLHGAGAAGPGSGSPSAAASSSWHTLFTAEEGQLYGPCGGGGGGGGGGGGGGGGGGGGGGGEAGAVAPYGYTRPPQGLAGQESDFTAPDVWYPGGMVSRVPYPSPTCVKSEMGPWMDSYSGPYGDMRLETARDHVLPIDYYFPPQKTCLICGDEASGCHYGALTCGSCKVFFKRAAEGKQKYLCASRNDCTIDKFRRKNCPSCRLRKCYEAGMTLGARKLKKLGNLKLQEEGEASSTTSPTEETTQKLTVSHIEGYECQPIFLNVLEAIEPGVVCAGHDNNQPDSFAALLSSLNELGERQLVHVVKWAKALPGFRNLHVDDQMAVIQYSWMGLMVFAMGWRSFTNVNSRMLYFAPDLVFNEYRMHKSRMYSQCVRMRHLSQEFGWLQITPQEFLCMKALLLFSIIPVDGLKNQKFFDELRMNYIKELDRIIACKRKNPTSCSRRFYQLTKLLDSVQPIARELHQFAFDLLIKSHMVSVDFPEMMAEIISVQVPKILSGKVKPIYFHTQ
The experiment in a line: AR degradation in LNCAP cells (Western blot). In kind it is cell-based. As to conditions: 24 hours after administration. The method, then: LNCAP, VCAP and 22Rv1 cells were plated in 24-well plates at 1.5×10E5 cells/well in the RPMI growth medium containing 10% FBS and 1% Penicillin Streptomycin, and then incubated at 37° C. overnight. The following day, the test compound was administered to the cells by using 1000× compound stock solution prepared in DMSO at various concentrations. After administration of the compound, the cells were then incubated at 37° C. for 24 hours. Upon completion, the cells were washed with PBS and protein was collected in Laemmli sample buffer (1×; VWR International). Proteins in cell lysate were separated by SDS-PAGE and transferred to Odyssey nitrocellulose membranes (Licor) with iblot® dry blotting transfer system (ThermoFisher). Nonspecific binding was blocked by incubating membranes with Intercept Blocking Buffer (Licor) for 1 hour at room temperature with gentle shaking. The membranes were then incubated overnight at 4° C. with Primary antibodies rabbit anti-AR (1:1,000, Cell Signaling, 5153) and mouse anti-GAPDH (1:5,000, Santa Cruz Biotechnology, sc-47724) diluted in Intercept Blocking Buffer containing 0.1% Tween 20. After washing 3 times with TBS-T, the membranes were incubated with IRDye® […] goat anti-mouse IgG (1:20,000, Licor) or IRDye® […] goat anti-rabbit IgG (1:20,000, Licor) for 1 hour. After TBS-T washes, membranes were rinsed in TBS and scanned on Odyssey® CLx Imaging System (Licor). The bands were quantified using Image Studio™ Software (Licor).
Tables 5 and 6 summarize the androgen receptor (AR) degradative activity of exemplary compounds in LNCAP, VCAP and 22Rv1 cell lines 24 hours after administration. DC50: compound concentration needed for 50% target protein degradation.
A general note: In western blotting, separated proteins are transferred to a membrane and probed.
`CCN(CC1CCN(c2ccc(NC(=O)N3C[C@H](C)N(c4ccc(C#N)c(Cl)c4)C[C@H]3C)cn2)CC1)C1CC(Oc2ccc3c(c2)C(=O)N(C2CCC(=O)NC2=O)C3=O)C1` (stereo partly drawn) [Compound 1-10, (2R,5S)-4-(3-chloro-4-cyanophenyl)-N-(6-(4-((((1r,3r)-3-((2-(2,6-dioxopiperidin-3-yl)-1,3-dioxoisoindolin-5-yl)oxy)cyclobutyl)(ethyl)amino)methyl)piperidin-1-yl)pyridin-3-yl)-2,5-dimethylpiperazine-1-carboxamide]: the DC50 (commonly the midpoint of the concentration-degradation curve) lay in the range of 10 to 100 nM.

As for `CC(C)N(CC1CCN(c2ccc(NC(=O)N3C[C@H](C)N(c4ccc(C#N)c5ncccc45)C[C@H]3C)cn2)CC1)C1CC(Oc2ccc3c(c2)C(=O)N(C2CCC(=O)NC2=O)C3=O)C1` (stereo partly drawn) [Compound 2-13, (2R,5S)-4-(8-cyanoquinolin-5-yl)-N-(6-(4-((((1r,3r)-3-((2-(2,6-dioxopiperidin-3-yl)-1,3-dioxoisoindolin-5-yl)oxy)cyclobutyl)(isopropyl)amino)methyl)piperidin-1-yl)pyridin-3-yl)-2,5-dimethylpiperazine-1-carboxamide], the 50% degradation concentration (DC50) is above 100 nM.

`C[C@@H]1CN(c2ccc(C#N)c(Cl)c2)[C@@H](C)CN1C(=O)Nc1ccc(OCCCCN(C)C2CC(Oc3ccc4c(c3)C(=O)N(C3CCC(=O)NC3=O)C4=O)C2)nc1` (stereo partly drawn) [Compound 1-8, (2R,5S)-4-(3-chloro-4-cyanophenyl)-N-(6-(4-(((1r,3r)-3-((2-(2,6-dioxopiperidin-3-yl)-1,3-dioxoisoindolin-5-yl)oxy)cyclobutyl)(methyl)amino)butoxy)pyridin-3-yl)-2,5-dimethylpiperazine-1-carboxamide] had a DC50 of at most 10 nM.

For the compound `C[C@@H]1CN(c2ccc(C#N)c(Cl)c2)[C@@H](C)CN1C(=O)Nc1cnc(N2CCC(CN3CCN(c4cc5c(cc4F)C(=O)N(C4CCC(=O)NC4=O)C5=O)CC3)CC2)nc1` (stereo partly drawn) [Compound 1-41, (2R,5S)-4-(3-chloro-4-cyanophenyl)-N-(2-(4-((4-(2-(2,6-dioxopiperidin-3-yl)-6-fluoro-1,3-dioxoisoindolin-5-yl)piperazin-1-yl)methyl)piperidin-1-yl)pyrimidin-5-yl)-2,5-dimethylpiperazine-1-carboxamide], the 50% degradation concentration (DC50) is at most 10 nM.

Regarding `C[C@@H]1CN(c2ccc(C#N)c(Cl)c2)[C@@H](C)CN1C(=O)Nc1ccc(N2CCC(CCN3CCN(c4ccc5c(c4)C(=O)N(C4CCC(=O)NC4=O)C5=O)CC3)CC2)nc1` (stereo partly drawn) [Compound 1-19, (2R,5S)-4-(3-chloro-4-cyanophenyl)-N-(6-(4-(2-(4-(2-(2,6-dioxopiperidin-3-yl)-1,3-dioxoisoindolin-5-yl)piperazin-1-yl)ethyl)piperidin-1-yl)pyridin-3-yl)-2,5-dimethylpiperazine-1-carboxamide], the half-maximal degradation concentration (DC50) is at most 10 nM.

`COc1cc(N2C[C@@H](C)N(C(=O)Nc3ccc(N4CCC(CN5CCN(c6cc7c(cc6F)C(=O)N([C@H]6CCC(=O)NC6=O)C7)CC5)CC4)c(F)c3)C[C@@H]2C)ccc1C#N` [Compound 1-55, (2R,5S)-4-(4-cyano-3-methoxyphenyl)-N-(4-(4-((4-(2-((S)-2,6-dioxopiperidin-3-yl)-6-fluoro-1-oxoisoindolin-5-yl)piperazin-1-yl)methyl)piperidin-1-yl)-3-fluorophenyl)-2,5-dimethylpiperazine-1-carboxamide] displayed a DC50 of at most 10 nM.

In turn, `C[C@@H]1CN(c2ccc(C#N)c3ncccc23)[C@@H](C)CN1C(=O)Nc1ccc(N2CCC(CN3CCN(c4cc5c(cc4F)C(=O)N(C4CCC(=O)NC4=O)C5=O)CC3)CC2)c(F)c1` (stereo partly drawn) [Compound 2-24, (2R,5S)-4-(8-cyanoquinolin-5-yl)-N-(4-(4-((4-(2-(2,6-dioxopiperidin-3-yl)-6-fluoro-1,3-dioxoisoindolin-5-yl)piperazin-1-yl)methyl)piperidin-1-yl)-3-fluorophenyl)-2,5-dimethylpiperazine-1-carboxamide] yielded a DC50 above 100 nM.

As for `COc1cc(N2C[C@@H](C)N(C(=O)Nc3cnc(N4CCC(CN5CCN(c6ccc7c(c6)CN([C@H]6CCC(=O)NC6=O)C7=O)CC5)CC4)nc3)C[C@@H]2C)ccc1C#N` [Compound 1-52, (2R,5S)-4-(4-cyano-3-methoxyphenyl)-N-(2-(4-((4-(2-((S)-2,6-dioxopiperidin-3-yl)-1-oxoisoindolin-5-yl)piperazin-1-yl)methyl)piperidin-1-yl)pyrimidin-5-yl)-2,5-dimethylpiperazine-1-carboxamide], the 50% degradation concentration (DC50) was at most 10 nM.

Compound `C[C@@H]1CN(c2ccc(C#N)c(C(F)(F)F)c2)[C@@H](C)CN1C(=O)Nc1ccc(N2CCC(CN3CCN(c4ccc5c(c4)C(=O)N(C4CCC(=O)NC4=O)C5=O)CC3)CC2)c(F)c1` (stereo partly drawn) [Compound 1-45, (2R,5S)-4-(4-cyano-3-(trifluoromethyl)phenyl)-N-(4-(4-((4-(2-(2,6-dioxopiperidin-3-yl)-1,3-dioxoisoindolin-5-yl)piperazin-1-yl)methyl)piperidin-1-yl)-3-fluorophenyl)-2,5-dimethylpiperazine-1-carboxamide] came in with a half-maximal degradation concentration (DC50) of at most 10 nM.

The compound `C[C@@H]1CN(c2ccc(C#N)c3ncccc23)[C@@H](C)CN1C(=O)Nc1ccc(N2CCC(CN3CCN(c4ccc5c(c4)C(=O)N(C4CCC(=O)NC4=O)C5=O)CC3)CC2)nc1` (stereo partly drawn) [Compound 2-9, (2R,5S)-4-(8-cyanoquinolin-5-yl)-N-(6-(4-((4-(2-(2,6-dioxopiperidin-3-yl)-1,3-dioxoisoindolin-5-yl)piperazin-1-yl)methyl)piperidin-1-yl)pyridin-3-yl)-2,5-dimethylpiperazine-1-carboxamide] registered a half-maximal degradation concentration (DC50) above 100 nM.

In turn, `C[C@@H]1CN(c2ccc(C#N)c(C(F)(F)F)c2)[C@@H](C)CN1C(=O)Nc1cnc(N2CCC(CN3CCN(c4ccc5c(c4)CN([C@H]4CCC(=O)NC4=O)C5=O)CC3)CC2)nc1` [Compound 1-49, (2R,5S)-4-(4-cyano-3-(trifluoromethyl)phenyl)-N-(2-(4-((4-(2-((S)-2,6-dioxopiperidin-3-yl)-1-oxoisoindolin-5-yl)piperazin-1-yl)methyl)piperidin-1-yl)pyrimidin-5-yl)-2,5-dimethylpiperazine-1-carboxamide] had a DC50 of at most 10 nM.

Compound `C[C@@H]1CN(c2ccc(C#N)c(Cl)c2)[C@@H](C)CN1C(=O)Nc1ccc(N2CCC(CN3CCN(c4ccc5c(c4)C(=O)N(C4CCC(=O)NC4=O)C5=O)CC3)CC2)nc1` (stereo partly drawn) [Compound 1-13, (2R,5S)-4-(3-chloro-4-cyanophenyl)-N-(6-(4-((4-(2-(2,6-dioxopiperidin-3-yl)-1,3-dioxoisoindolin-5-yl)piperazin-1-yl)methyl)piperidin-1-yl)pyridin-3-yl)-2,5-dimethylpiperazine-1-carboxamide] displayed a half-maximal degradation concentration (DC50) of at most 10 nM.

In turn, `C[C@@H]1CN(c2ccc(C#N)c3ncccc23)[C@@H](C)CN1C(=O)Nc1cnc(N2CCC(CN3CCN(c4ccc5c(c4)CN([C@H]4CCC(=O)NC4=O)C5=O)CC3)CC2)nc1` [Compound 2-10, (2R,5S)-4-(8-cyanoquinolin-5-yl)-N-(2-(4-((4-(2-((S)-2,6-dioxopiperidin-3-yl)-1-oxoisoindolin-5-yl)piperazin-1-yl)methy)piperidin-1-yl)pyrimidin-5-yl)-2,5-dimethylpiperazine-1-carboxamide] gave a half-maximal degradation concentration (DC50) above 100 nM.

`C[C@@H]1CN(c2ccc(C#N)c(Cl)c2)[C@@H](C)CN1C(=O)Nc1ccc(N2CCC(CN3CCN(c4cc5c(cc4F)C(=O)N([C@H]4CCC(=O)NC4=O)C5=O)CC3)CC2)nc1` [Compound 1-54, (2R,5S)-4-(3-chloro-4-cyanophenyl)-N-(6-(4-((4-(2-(2,6-dioxopiperidin-3-yl)-6-fluoro-1,3-dioxoisoindolin-5-yl)piperazin-1-yl)methyl)piperidin-1-yl)pyridin-3-yl)-2,5-dimethylpiperazine-1-carboxamide]: the half-maximal degradation concentration (DC50) was at most 10 nM.

The values are drawn from patent publication US11420956B2, “Ureas having Androgen Receptor degradation activity and uses thereof” (ACCUTAR BIOTECHNOLOGY INC., priority 2019, dated 2022).
